# Measurements taken from PubChem BioAssay (NCI).
#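 Interpolation was linear, between the two tested concentrations surrounding the appropriate level; five concentrations were tested over 48 hours in 96-well plates. GI50 = concentration required for 50% inhibition of growth. At the TGI there is no net growth.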
# Assays:
# Experiment in all cases: NCI anticancer screen, dose series, 48 h
# 786-0 renal = system: 786-0 renal
# A498 renal = system: A498 renal
# ACHN renal = system: ACHN renal
# BT-549 breast = system: BT-549 breast
# CAKI-1 renal = system: CAKI-1 renal
# CCRF-CEM leukemia = system: CCRF-CEM leukemia
# COLO 205 colon = system: COLO 205 colon
# DU-145 prostate = system: DU-145 prostate
# HCC-2998 colon = system: HCC-2998 colon
# HCT-116 colon = system: HCT-116 colon
# HCT-15 colon = system: HCT-15 colon
# HL-60(TB) leukemia = system: HL-60(TB) leukemia
# HOP-62 NSCLC = system: HOP-62 NSCLC
# HOP-92 NSCLC = system: HOP-92 NSCLC
# HS 578T breast = system: HS 578T breast
# HT29 colon = system: HT29 colon
# IGROV1 ovarian = system: IGROV1 ovarian
# K-562 leukemia = system: K-562 leukemia
# KM12 colon = system: KM12 colon
# LOX IMVI melanoma = system: LOX IMVI melanoma
# M14 melanoma = system: M14 melanoma
# MALME-3M melanoma = system: MALME-3M melanoma
# MCF7 breast = system: MCF7 breast
# MDA-MB-231 breast = system: MDA-MB-231 breast
# MOLT-4 leukemia = system: MOLT-4 leukemia
# NCI-H226 lung = system: NCI-H226 lung
# NCI-H23 lung = system: NCI-H23 lung
# NCI-H460 lung = system: NCI-H460 lung
# NCI-H522 lung = system: NCI-H522 lung
# NCI/ADR-RES ovarian = system: NCI/ADR-RES ovarian
# OVCAR-3 ovarian = system: OVCAR-3 ovarian
# OVCAR-4 ovarian = system: OVCAR-4 ovarian
# OVCAR-5 ovarian = system: OVCAR-5 ovarian
# OVCAR-8 ovarian = system: OVCAR-8 ovarian
# PC-3 prostate = system: PC-3 prostate
# RPMI-8226 leukemia = system: RPMI-8226 leukemia
# RXF 393 renal = system: RXF 393 renal
# SF-268 CNS = system: SF-268 CNS
# SF-295 CNS = system: SF-295 CNS
# SF-539 CNS = system: SF-539 CNS
# SK-MEL-2 melanoma = system: SK-MEL-2 melanoma
# SK-MEL-28 melanoma = system: SK-MEL-28 melanoma
# SK-MEL-5 melanoma = system: SK-MEL-5 melanoma
# SK-OV-3 ovarian = system: SK-OV-3 ovarian
# SN12C renal = system: SN12C renal
# SNB-19 CNS = system: SNB-19 CNS
# SNB-75 CNS = system: SNB-75 CNS
# SR leukemia = system: SR leukemia
# SW-620 colon = system: SW-620 colon
# T-47D breast = system: T-47D breast
# TK-10 renal = system: TK-10 renal
# U251 CNS = system: U251 CNS
# UACC-257 melanoma = system: UACC-257 melanoma
# UO-31 renal = system: UO-31 renal
compound,measurement,setting,value
Cc1[nH]nc2c1N=C(c1ccccc1Cl)c1cc([N+](=O)[O-])ccc1N2,GI50,786-0 renal,1.35 µM
same,TGI,786-0 renal,> 17.1 µM
same,GI50,A498 renal,0.151 µM
same,TGI,A498 renal,1.62 µM
same,GI50,ACHN renal,1.07 µM
same,TGI,ACHN renal,> 15.3 µM
same,GI50,BT-549 breast,> 15.1 µM
same,TGI,BT-549 breast,> 25 µM
same,GI50,CAKI-1 renal,2.12 µM
same,TGI,CAKI-1 renal,> 22.2 µM
same,GI50,CCRF-CEM leukemia,0.76 µM
same,TGI,CCRF-CEM leukemia,> 25 µM
same,GI50,COLO 205 colon,0.981 µM
same,TGI,COLO 205 colon,> 25 µM
same,GI50,DU-145 prostate,0.891 µM
same,TGI,DU-145 prostate,> 25 µM
same,GI50,HCC-2998 colon,14.6 µM
same,TGI,HCC-2998 colon,> 25 µM
same,GI50,HCT-116 colon,0.337 µM
same,TGI,HCT-116 colon,> 25 µM
same,GI50,HCT-15 colon,0.198 µM
same,TGI,HCT-15 colon,> 25 µM
same,GI50,HL-60(TB) leukemia,0.104 µM
same,TGI,HL-60(TB) leukemia,> 25 µM
same,GI50,HOP-62 NSCLC,1.02 µM
same,TGI,HOP-62 NSCLC,> 25 µM
same,GI50,HOP-92 NSCLC,> 18.9 µM
same,TGI,HOP-92 NSCLC,> 25 µM
same,GI50,HS 578T breast,0.223 µM
same,TGI,HS 578T breast,> 25 µM
same,GI50,HT29 colon,0.979 µM
same,TGI,HT29 colon,> 25 µM
same,GI50,IGROV1 ovarian,> 8.07 µM
same,TGI,IGROV1 ovarian,> 25 µM
same,GI50,K-562 leukemia,0.175 µM
same,TGI,K-562 leukemia,> 25 µM
same,GI50,KM12 colon,0.338 µM
same,TGI,KM12 colon,> 13.7 µM
same,GI50,LOX IMVI melanoma,1.92 µM
same,TGI,LOX IMVI melanoma,> 25 µM
same,GI50,M14 melanoma,0.687 µM
same,TGI,M14 melanoma,> 25 µM
same,GI50,MALME-3M melanoma,> 25 µM
same,TGI,MALME-3M melanoma,> 25 µM
same,GI50,MCF7 breast,0.142 µM
same,TGI,MCF7 breast,> 25 µM
same,GI50,MDA-MB-231 breast,4.42 µM
same,TGI,MDA-MB-231 breast,> 25 µM
same,GI50,MOLT-4 leukemia,14.8 µM
same,TGI,MOLT-4 leukemia,> 25 µM
same,GI50,NCI-H226 lung,4.08 µM
same,TGI,NCI-H226 lung,> 19.6 µM
same,GI50,NCI-H23 lung,5.06 µM
same,TGI,NCI-H23 lung,> 25 µM
same,GI50,NCI-H460 lung,0.484 µM
same,TGI,NCI-H460 lung,> 25 µM
same,GI50,NCI-H522 lung,0.139 µM
same,TGI,NCI-H522 lung,> 25 µM
same,GI50,NCI/ADR-RES ovarian,0.728 µM
same,TGI,NCI/ADR-RES ovarian,> 25 µM
same,GI50,OVCAR-3 ovarian,0.145 µM
same,TGI,OVCAR-3 ovarian,0.836 µM
same,GI50,OVCAR-4 ovarian,5.15 µM
same,TGI,OVCAR-4 ovarian,> 25 µM
same,GI50,OVCAR-5 ovarian,> 25 µM
same,TGI,OVCAR-5 ovarian,> 25 µM
same,GI50,OVCAR-8 ovarian,> 25 µM
same,TGI,OVCAR-8 ovarian,> 25 µM
same,GI50,PC-3 prostate,0.233 µM
same,TGI,PC-3 prostate,> 25 µM
same,GI50,RPMI-8226 leukemia,0.97 µM
same,TGI,RPMI-8226 leukemia,> 25 µM
same,GI50,RXF 393 renal,0.245 µM
same,TGI,RXF 393 renal,1.92 µM
same,GI50,SF-268 CNS,1.14 µM
same,TGI,SF-268 CNS,> 25 µM
same,GI50,SF-295 CNS,0.256 µM
same,GI50,SF-539 CNS,0.132 µM
same,TGI,SF-539 CNS,> 5.27 µM
same,GI50,SK-MEL-2 melanoma,0.126 µM
same,TGI,SK-MEL-2 melanoma,> 25 µM
same,GI50,SK-MEL-28 melanoma,> 25 µM
same,TGI,SK-MEL-28 melanoma,> 25 µM
same,GI50,SK-MEL-5 melanoma,0.204 µM
same,TGI,SK-MEL-5 melanoma,> 25 µM
same,GI50,SK-OV-3 ovarian,1.62 µM
same,TGI,SK-OV-3 ovarian,> 25 µM
same,GI50,SN12C renal,3.29 µM
same,TGI,SN12C renal,> 25 µM
same,GI50,SNB-19 CNS,> 25 µM
same,TGI,SNB-19 CNS,> 25 µM
same,GI50,SNB-75 CNS,0.0215 µM
same,GI50,SR leukemia,0.11 µM
same,TGI,SR leukemia,> 25 µM
same,GI50,SW-620 colon,0.14 µM
same,TGI,SW-620 colon,> 25 µM
same,GI50,T-47D breast,> 25 µM
same,TGI,T-47D breast,> 25 µM
same,GI50,TK-10 renal,9.23 µM
same,TGI,TK-10 renal,> 25 µM
same,GI50,U251 CNS,0.511 µM
same,TGI,U251 CNS,> 25 µM
same,GI50,UACC-257 melanoma,> 25 µM
same,TGI,UACC-257 melanoma,> 25 µM
same,GI50,UO-31 renal,4.94 µM
same,TGI,UO-31 renal,> 25 µM
